Experiment: solvent given as SMILES
[1] = in O=P(c1ccccc1)(c1ccccc1)c1ccccc1Oc1ccccc1P(=O)(c1ccccc1)c1ccccc1

With CC1(C)CC(/C=C/c2ccc(-n3c4ccccc4c4ccccc43)cc2)=CC(=C(C#N)C#N)C1 as the molecule, how does the emission maximum (in C1CCOC1) read?
The emission maximum was 571 nm.

And the emission maximum (in CC#N)?
The emission maximum was 600 nm.

And the emission maximum (in CCO)?
Its emission maximum is 583 nm.

What about the emission maximum (in CCOC(C)=O) of the same molecule?
The emission maximum was 565 nm.

And the emission maximum (in ClCCl)?
Its emission maximum is 582 nm.

And the emission maximum (in c1ccccc1)?
Its emission maximum is 534 nm.

With COc1ccc(N(c2ccc(OC)cc2)c2ccc(-c3ccc4c(c3)C(=O)c3ccccc3C4=O)cc2)cc1 as the molecule, how does the emission maximum (in CCCCCC) read?
The emission maximum was 571 nm.

What about the emission maximum (in CCOCC) of the same molecule?
The emission maximum was 720 nm.

What about the emission maximum (in Cc1ccccc1) of the same molecule?
Its emission maximum is 679 nm.

What about the emission maximum (in ClC(Cl)(Cl)Cl) of the same molecule?
The emission maximum was 646 nm.

Which results are given for CC(C)(C)c1ccc2c(c1)c1cc(C(C)(C)C)ccc1n2-c1ccccc1-c1nc(-c2ccccc2-n2c3ccc(C(C)(C)C)cc3c3cc(C(C)(C)C)ccc32)nc(-c2ccccc2P(=O)(c2ccccc2)c2ccccc2)n1?
emission maximum (in C1CCOC1): 512.54 nm; emission maximum (in CC#N): 546.04 nm; emission maximum (in CC(C)=O): 533.4 nm; emission maximum (in CN(C)C=O): 546.04 nm; emission maximum (in Cc1ccccc1): 493.22 nm; emission maximum (in ClC(Cl)Cl): 516.24 nm; emission maximum (in ClCCl): 529.29 nm; emission maximum [1]: 500 nm

Which emission maximum (in CO) does the source give for Cc1nc2c(ccc3c2sc(/C=C/c2ccc(-n4c5ccccc5c5ccccc54)cc2)[n+]3C)s1 here?
The emission maximum was 607 nm.

What about the emission maximum (in ClC(Cl)Cl) of the same molecule?
The emission maximum was 638 nm.

Which emission maximum (in C1CCOC1) does the source give for COc1ccc(/C=C/C(F)(F)F)c(N)c1 here?
The emission maximum was 410 nm.

With COc1ccc(C2=C3C(/C=C/c4cc(OC)c(OC)c(OC)c4)=C(C=O)C(C)=[N+]3[B-](F)(F)n3c(/C=C/c4cc(OC)c(OC)c(OC)c4)c(C=O)c(C=Cc4cc(OC)c(OC)c(OC)c4)c32)cc1 as the molecule, how does the emission maximum (in ClCCl) read?
The emission maximum was 686 nm.

Which emission maximum (in C1CCCCC1) does the source give for Fc1ccc(-c2cc3ccc4cc(-c5ccc(F)cc5)cc5ccc(c2)c3c45)cc1 here?
Its emission maximum is 413.38 nm.

And the emission maximum (in C1CCOC1)?
The emission maximum was 411.8 nm.

What about the emission maximum (in CC#N) of the same molecule?
The emission maximum was 408.05 nm.

And the emission maximum (in CCCCCC)?
Its emission maximum is 411.8 nm.

And the emission maximum (in CCO)?
The emission maximum was 408.84 nm.

And the emission maximum (in CN(C)C=O)?
The emission maximum was 409.82 nm.

And the emission maximum (in CO)?
Its emission maximum is 408.05 nm.

And the emission maximum (in ClC(Cl)Cl)?
The emission maximum was 410.54 nm.

What about the emission maximum (in ClCCl) of the same molecule?
The emission maximum was 409.82 nm.

Which emission maximum (in C1CCOC1) does the source give for COc1ccc2cc(-c3ccc(C)cc3)c(=O)oc2c1 here?
The emission maximum was 424 nm.

What about the emission maximum (in CCCCCC) of the same molecule?
Its emission maximum is 414 nm.

And the emission maximum (in CCO)?
Its emission maximum is 429 nm.

And the emission maximum (in CS(C)=O)?
Its emission maximum is 431 nm.

With CCCN1C(=O)C(=CC=CC=C2Oc3ccccc3N2CCCS(=O)(=O)[O-])C(=O)N(CCC)C1=S as the molecule, how does the emission maximum (in C1COCCO1) read?
The emission maximum was 584 nm.

And the emission maximum (in CC(C)=O)?
The emission maximum was 580 nm.

And the emission maximum (in CCCCO)?
Its emission maximum is 583 nm.

What about the emission maximum (in CCCO) of the same molecule?
The emission maximum was 581 nm.

What about the emission maximum (in CCO) of the same molecule?
Its emission maximum is 579 nm.

And the emission maximum (in CO)?
The emission maximum was 577 nm.

And the emission maximum (in ClC(Cl)Cl)?
Its emission maximum is 589 nm.

And the emission maximum (in O)?
Its emission maximum is 573 nm.

For CC(C)(C)c1ccc(-c2cc(-c3ccc(-c4cc(-c5ccc(C(C)(C)C)cc5)c(C(=O)N5CCCCC5)s4)s3)sc2C(=O)N2CCCCC2)cc1, which emission maximum (in ClCCl) is on record?
Its emission maximum is 461 nm.

Which results are given for CC1(C)c2ccccc2N(c2ccc3c(c2)c2cc(N4c5ccccc5C(C)(C)c5ccccc54)ccc2c2nc(C#N)c(C#N)nc32)c2ccccc21?
emission maximum (in C1COCCO1): 753.65 nm; emission maximum (in CCCCCC): 572.45 nm; emission maximum (in Cc1ccccc1): 678 nm; emission maximum (in O=P(c1ccccc1)(c1ccccc1)c1cccc(-c2cc(-n3c4ccccc4c4ccccc43)cc(-n3c4ccccc4c4ccccc43)c2)n1): 618 nm

With CC(C)(C)c1ccc(C2=CC3=C(c4ccccc4)c4cc(-c5ccc(C(C)(C)C)cc5)c(-c5ccc(C(C)(C)C)cc5)n4[B-](F)(F)[N+]3=C2c2ccc(C(C)(C)C)cc2)cc1 as the molecule, how does the emission maximum (in C1CCCCC1) read?
Its emission maximum is 643 nm.

What about the emission maximum (in C1CCOC1) of the same molecule?
Its emission maximum is 649 nm.

And the emission maximum (in CC#N)?
Its emission maximum is 647 nm.

What about the emission maximum (in Cc1ccccc1) of the same molecule?
Its emission maximum is 649 nm.

What about the emission maximum (in ClCCl) of the same molecule?
The emission maximum was 649 nm.

Which emission maximum (in ClCCl) does the source give for CN(C)c1ccc(C#Cc2cc(C#Cc3ccc(N(C)C)cc3)c3ccc4c(C#Cc5ccc(C(F)(F)F)cc5)cc(C#Cc5ccc(N(C)C)cc5)c5ccc2c3c54)cc1 here?
Its emission maximum is 576 nm.

What does the source list for CCN(CC)c1ccc(/N=N/c2nc3ccc(OC)cc3s2)cc1?
emission maximum (in CC#N): 583 nm; emission maximum (in ClCCl): 574 nm

With O=C(c1ccc(C(=C(c2ccc(C(=O)c3ccc(-n4c5ccccc5c5ccccc54)cc3)cc2)c2ccc(C(=O)c3ccc(-n4c5ccccc5c5ccccc54)cc3)cc2)c2ccccc2)cc1)c1ccc(-n2c3ccccc3c3ccccc32)cc1 as the molecule, how does the emission maximum (in C1CCOC1) read?
Its emission maximum is 503 nm.

With CC(=O)c1nc(-c2ccc(N(C)C)cc2)oc1C as the molecule, how does the emission maximum (in CC#N) read?
Its emission maximum is 376 nm.

What about the emission maximum (in CCO) of the same molecule?
The emission maximum was 377 nm.

What about the emission maximum (in CCOC(C)=O) of the same molecule?
The emission maximum was 370 nm.

What about the emission maximum (in CCOCC) of the same molecule?
Its emission maximum is 368 nm.

What about the emission maximum (in ClCCl) of the same molecule?
The emission maximum was 373 nm.

With Cc1c(-c2nc(-c3ccccc3)nc(-c3ccccc3)n2)ccc(-n2c3ccccc3c3cc4c(cc32)C2c3ccccc3C4c3ccccc32)c1C as the molecule, how does the emission maximum (in Cc1ccccc1) read?
Its emission maximum is 427 nm.

What about the emission maximum [1] of the same molecule?
Its emission maximum is 435 nm.

What does the source list for C1=Cc2ccccc2Cc2ccccc21?
emission maximum (in CC#N): 383 nm; emission maximum (in CO): 380 nm

With CCCCn1c(-c2ccc(-c3nnc(-c4ccc5ccccc5c4)o3)cc2)nc2c3ccccc3c3ccccc3c21 as the molecule, how does the emission maximum (in ClCCl) read?
The emission maximum was 448 nm.

With CN(C)c1ccc2c(C(=O)NCc3ccccc3)cc(C(=O)[O-])nc2c1 as the molecule, how does the emission maximum (in CCO) read?
Its emission maximum is 603 nm.

For COc1cc(/C=C/C(=O)O)ccc1O, which emission maximum (in O) is on record?
The emission maximum was 413 nm.
